# Measured values as given in paper PMC9863764, “Roles of Human Liver Cytochrome P450 Enzymes in Tenatoprazole Metabolism” (Pharmaceutics, 2022).
# Several values for one entry are separate records, joined by “and”; a condition that tells them apart may be missing. Identical values can stand only once.
# Key:
# Assay type in all cases: in vitro ADME
# [1] = test system: human liver microsomes (HLMs); test: Time course of oxidation of tenatoprazole and tenatoprazole sulfide by human liver microsomes (HPLC); settings: human, 12 h, 500 μM, pH 7.4
# Experimental: A racemate of tenatoprazole was used in this work because the chiral tenatoprazoles currently are not commercially available. The reactions using HLMs contained incubation at 37 °C in 0.25 mL mixtures containing P450 (0.5 mg protein/mL) in 100 mM potassium phosphate buffer (pH 7.4), an NADPH-generating system (NGS, final concentration of 10 mM glucose-6-phosphate, 0.50 mM NADP^+, 1.0 IU yeast glucose-6-phosphate dehydrogenase per mL), and 0.1 mM of tenatoprazole or tenatoprazole sulfide. Incubations generally were performed for 2 h in the presence or absence of the NGS. Tenatoprazole and its metabolites were extracted twice using cold ethyl acetate as an organic solvent. Then centrifugation (1000× g, 20 min) was done to separate the organic layer from the aqueous layer. Omeprazole was added to this solution as an internal standard (IS) at a final 20 μM concentration. The organic layer was concentrated under nitrogen gas stream. The dried residues were then dissolved in the mobile phase (180 μL) and 30 μL was injected onto the column.
# High-performance liquid chromatography (HPLC) was performed on the basis of a previously developed method for tenatoprazole and its metabolites, as described elsewhere. The analytical column was a Gemini C18 column (4.6 × 150 mm, 5 μm; Phenomenex), and the HPLC mobile phase consisted of acetonitrile and 5 mM potassium phosphate buffer (pH 7.3) (25:75, v/v). The substrate and its metabolites were detected at A302. The HPLC profile of the authentic compounds (i.e., tenatoprazole and its metabolites) were measured to compare to identify the major metabolites of tenatoprazole and tenatoprazole sulfide produced by HLMs.
# The time course of the oxidation of tenatoprazole and tenatoprazole sulfide by HLMs (0.5 mg protein/mL) was analyzed to the estimated yield of metabolites and percentage of each metabolite using 0.60 mM substrate in 0.25 mL of 0.10 M potassium phosphate buffer (pH 7.4). After NGS was added to initiate the reaction, the samples were incubated for the designated time (i.e., 2, 5, 10, and 30 min, and 1, 2, 4, 8, 12, and 24 h) at 37 °C. Product formation was quantified using HPLC analysis, as mentioned above.
# Calibration standard curves of tenatoprazole were made using a blank control sample (a reaction mixture without substrate and IS) and 12 samples containing tenatoprazole and omeprazole (IS) covering the concentration ranges of 1–500 μM, as described previously. The peak area ratio of tenatoprazole to IS was linear with respect to the analyte concentration over the range of 1–500 μM. The metabolites were quantified by comparing the peak areas of each metabolite to the mean peak areas of the IS (20 μM omeprazole).
# human CYP3A4 [2] = biological target: T1, human CYP3A4 (Homo sapiens, UniProt P08684); test: Sulfoxidation of tenatoprazole sulfide by recombinant CYP3A4 (chiral chromatography)
# T1 construct: made in house; host or cells: Escherichia coli (membrane fractions)
# T1 sequence (P08684 whole entry): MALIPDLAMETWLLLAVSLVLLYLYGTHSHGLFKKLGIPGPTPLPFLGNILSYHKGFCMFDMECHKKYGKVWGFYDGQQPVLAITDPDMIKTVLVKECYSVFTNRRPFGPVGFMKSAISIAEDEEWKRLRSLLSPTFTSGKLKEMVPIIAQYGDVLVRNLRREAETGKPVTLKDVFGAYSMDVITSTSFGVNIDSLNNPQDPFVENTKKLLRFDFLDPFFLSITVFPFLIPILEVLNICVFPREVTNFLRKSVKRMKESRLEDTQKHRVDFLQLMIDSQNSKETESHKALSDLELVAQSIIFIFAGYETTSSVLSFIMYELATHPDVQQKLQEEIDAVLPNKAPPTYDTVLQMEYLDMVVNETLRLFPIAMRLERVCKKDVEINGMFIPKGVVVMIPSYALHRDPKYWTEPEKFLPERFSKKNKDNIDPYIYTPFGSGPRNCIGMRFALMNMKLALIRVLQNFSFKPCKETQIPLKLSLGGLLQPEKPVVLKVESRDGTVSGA
# Experimental: The sulfoxidation reaction of tenatoprazole sulfide by CYP3A4 was measured by chiral chromatography. […] The reaction was initiated by adding NGS at 37 °C. […] After the residues were solubilized in 180 μL mobile phase, 30 μL samples were injected onto a Chiralpak AD column (4.6 × 150 mm, 10 μm; Daicel Corporation, Osaka, Japan) with a hexane-ethanol mixture (30:70, v/v) as the mobile phase. The products formed were analyzed by HPLC at […]. […] The kinetic parameters (kcat and Km) were determined by using a Michaelis-Menten nonlinear regression analysis with GraphPad Prism (GraphPad Software, San Diego, CA, USA).
# human CYP3A4 [3] = biological target: T1, human CYP3A4; test: Steady-state kinetics of tenatoprazole oxidation by recombinant CYP3A4; settings: 30 min incubation, LC-QTOF-MS
# Experimental: Pooled liver microsomes from human samples were obtained from ThermoFisher Scientific (Waltham, MA, USA). […] Membrane fractions expressing both P450 and CPR of E. coli were prepared as described previously and were used for the catalytic activity assays. […] The reaction was started by adding NGS and the incubation was continued for the indicated time at 37 °C. Incubation was then stopped by adding ice-chilled ethyl acetate (0.50 mL) and omeprazole (IS) was added to a final concentration of 20 μM. […] Phenomenex, Torrance, CA, USA). The products formed were analyzed by HPLC at […]. The HPLC profile of the authentic chemicals (i.e., tenatoprazole, tenatoprazole sulfide, and their metabolites) were used to identify the major metabolites of tenatoprazole and tenatoprazole sulfide produced by the recombinant P450s. […] The kinetic parameters (kcat and Km) were determined by using a Michaelis-Menten nonlinear regression analysis with GraphPad Prism (GraphPad Software, San Diego, CA, USA). To further characterize the nature of the metabolites, the reaction mixtures were additionally analyzed by a 6530 Quadrupole Time-of-Flight (QTOF) mass spectrometer (MS) (Agilent, Santa Clara, CA, USA) coupled with a 1290 Infinity ultra-performance liquid chromatography (UPLC) system (Agilent). […] The reaction was initiated by adding NGS at 37 °C. […] Then, the upper layer was transferred to a glass tube and dried under nitrogen stream. The residues were reconstituted in 0.30 mL acetonitrile, then 1 μL samples were injected into an LC-MS system. The analytical column was a Hypersil Gold C18 column (100 × 2.1 mm, 1.9 μm; ThermoFisher Scientific). […] A gradient program was used for HPLC separation, and the flow rate was 0.4 mL/min. […] The column and autosampler were kept at 35 °C and 4 °C, respectively, during analysis. Electrospray ionization was performed in the positive ion mode. The sheath gas flow rate was 8 L/min. The flow rate of drying gas was 12 L/min at 350 °C, and the nebulizer's temperature was set at 350 °C. The capillary voltage was 4500 V in the positive mode, and that of the fragmentor was 175 V. Data acquisition were done over a scan range from 50 m/z to 1000 m/z in the centroid mode. A reference compound (C18H18O6N3P3F24; [M+H]^+ = 922.0098) was used to correct all of the masses. Tandem mass spectrometry (MS/MS) data were acquired in profile mode via autoanalysis for structural characterization with 30 eV of the collision energy.
compound,measurement,setting,value
"COc1ccc2[nH]c(SCc3ncc(C)c(OC)c3C)nc2n1 [tenatoprazole sulfide, Tenatoprazole sulfide]",conversion yield to tenatoprazole sulfide,[1],94.8%
same,tenatoprazole sulfide remained,[1]; microsomes,More than 99%
same,sulfoxidation activity to produce tenatoprazole,"human CYP3A4 [2]; recombinant CYP3A4, substrate tenatoprazole sulfide",showed the sulfoxidation activity
"COc1ccc2[nH]c(SCc3c(C)c(OC)c(CO)c[n+]3[O-])nc2n1 [1′-N-oxy-5′-OH tenatoprazole sulfide, 1′-N-oxy-5′-hydroxytenatoprazole sulfide]",amount of metabolite observed in CYP3A4-catalyzed reaction,human CYP3A4 [3],only trace amounts
COc1ccc2[nH]c([S@+]([O-])Cc3ncc(C)c(OC)c3C)nc2n1 [R-tenatoprazole],fold higher catalytic efficiency of R-tenatoprazole formation than S-tenatoprazole formation,"human CYP3A4 [2]; substrate tenatoprazole sulfide, CYP3A4",1.7 fold
same,kcat of product formation,"human CYP3A4 [2]; substrate tenatoprazole sulfide, recombinant CYP3A4, chiral chromatography, label = product formed",0.0667 s⁻¹ and 0.0667 ± 0.005 s⁻¹
